From patent US8030336B2, “Nicotinamide-based kinase inhibitors” (YM Biosciences Australia Pty Ltd, priority 2002, dated 2011)

Assays:
Type in all cases: biochemical
[1] = biological target: T1, human JAK3 (Homo sapiens, UniProt P52333); experiment: JAK3 kinase assay (ELISA or Alphascreen); settings: read-out: Jak3 inhibition of enzyme activity
T1 construct: The kinase domain of human JAK3 was amplified from U937mRNA; His tag (from the pFastBac HTb vector) (N); made in house; host or cells: baculovirus; Sf9 for virus, High Five insect cells for production
T1 sequence (P52333 822-1111 limits assumed): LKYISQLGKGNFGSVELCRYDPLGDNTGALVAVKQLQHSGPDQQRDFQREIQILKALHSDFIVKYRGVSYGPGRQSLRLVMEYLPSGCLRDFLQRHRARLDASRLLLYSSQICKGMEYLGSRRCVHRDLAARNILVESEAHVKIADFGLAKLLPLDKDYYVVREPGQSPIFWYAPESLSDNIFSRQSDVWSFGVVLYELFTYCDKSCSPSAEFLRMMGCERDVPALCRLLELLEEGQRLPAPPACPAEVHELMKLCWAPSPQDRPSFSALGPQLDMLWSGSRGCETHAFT
Method in brief: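 Read-out: anti-phosphotyrosine detection of a 5 μM biotin-peptide substrate, via PY20-peroxidase ELISA or Alphascreen beads. Enzyme was nickel-purified recombinant JAK3 kinase domain (~1.5 μg), with ATP at 10 μM-1 mM, pH 7.5 HEPES/MgCl2/NaCl.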

[2] = biological target: T2, fms (Homo sapiens, UniProt P07333); experiment: fms kinase assay (ELISA or Alphascreen); settings: read-out: fms inhibition of enzyme activity
T2 sequence (P07333 582-910 limits assumed): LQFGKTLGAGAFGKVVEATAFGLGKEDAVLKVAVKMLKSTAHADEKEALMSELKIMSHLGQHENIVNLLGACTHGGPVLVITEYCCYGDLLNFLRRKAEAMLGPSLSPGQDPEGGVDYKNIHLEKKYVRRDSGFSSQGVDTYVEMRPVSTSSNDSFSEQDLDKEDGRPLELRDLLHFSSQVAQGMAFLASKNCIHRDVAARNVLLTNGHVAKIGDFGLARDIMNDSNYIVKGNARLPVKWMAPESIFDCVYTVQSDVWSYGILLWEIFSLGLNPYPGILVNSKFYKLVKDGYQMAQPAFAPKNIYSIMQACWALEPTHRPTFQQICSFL
Method in brief: (§1)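 PTK domain ~1.5 μg; 50 mM HEPES pH 7.5, 10 mM MgCl2, 150 mM NaCl; ATP 10 μM-1 mM; biotinylated peptide 5 μM final. Read-out: avidin-capture ELISA with PY20 or Alphascreen pTyr acceptor/streptavidin donor beads.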

[3] = biological target: T3, abl (Homo sapiens, UniProt P00519); experiment: abl kinase assay (ELISA or Alphascreen); settings: read-out: abl inhibition of enzyme activity
T3 sequence (P00519 242-493 limits assumed): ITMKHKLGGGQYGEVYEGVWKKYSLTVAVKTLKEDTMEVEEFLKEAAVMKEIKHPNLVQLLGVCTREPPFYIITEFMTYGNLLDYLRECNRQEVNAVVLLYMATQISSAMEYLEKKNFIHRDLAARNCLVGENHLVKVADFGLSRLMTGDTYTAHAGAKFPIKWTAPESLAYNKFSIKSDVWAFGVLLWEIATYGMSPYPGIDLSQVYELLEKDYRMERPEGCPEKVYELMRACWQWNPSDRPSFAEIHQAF
Method in brief: as §1

[4] = biological target: fes (Homo sapiens, UniProt P07332); experiment: fes kinase assay (ELISA or Alphascreen); settings: read-out: fes inhibition of enzyme activity
Chain of fes (P07332 561-822 limits assumed, species assumed): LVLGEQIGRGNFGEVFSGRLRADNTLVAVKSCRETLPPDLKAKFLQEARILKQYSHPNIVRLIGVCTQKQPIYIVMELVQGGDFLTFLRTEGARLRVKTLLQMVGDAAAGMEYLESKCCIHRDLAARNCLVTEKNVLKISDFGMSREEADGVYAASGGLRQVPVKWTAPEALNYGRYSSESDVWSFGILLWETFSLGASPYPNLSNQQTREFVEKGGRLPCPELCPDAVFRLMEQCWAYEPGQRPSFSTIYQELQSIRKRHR
Method in brief: as §1

[5] = biological target: T4, Zap70 (Homo sapiens, UniProt P43403); experiment: Zap70 kinase assay (ELISA or Alphascreen); settings: read-out: Zap70 inhibition of enzyme activity
T4 sequence (P43403 338-600 limits assumed): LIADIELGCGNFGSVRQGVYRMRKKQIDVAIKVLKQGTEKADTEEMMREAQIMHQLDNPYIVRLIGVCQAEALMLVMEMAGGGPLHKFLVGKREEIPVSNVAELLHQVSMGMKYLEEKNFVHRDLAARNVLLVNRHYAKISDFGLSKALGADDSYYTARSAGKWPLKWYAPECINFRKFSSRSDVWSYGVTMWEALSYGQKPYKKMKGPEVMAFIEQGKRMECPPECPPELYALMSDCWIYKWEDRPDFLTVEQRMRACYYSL
Method in brief: as §1

[6] = biological target: hck (Homo sapiens, UniProt P08631); experiment: hck kinase assay (ELISA or Alphascreen); settings: read-out: hck inhibition of enzyme activity
Chain of hck (P08631 262-515 limits assumed, species assumed): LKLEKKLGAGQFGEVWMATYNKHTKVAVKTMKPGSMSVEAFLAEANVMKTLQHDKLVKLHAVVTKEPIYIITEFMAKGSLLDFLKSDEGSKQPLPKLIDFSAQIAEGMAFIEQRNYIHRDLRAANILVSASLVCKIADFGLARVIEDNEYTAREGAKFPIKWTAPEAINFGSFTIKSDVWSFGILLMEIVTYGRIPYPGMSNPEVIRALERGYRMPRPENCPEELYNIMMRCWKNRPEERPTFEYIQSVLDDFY
Method in brief: as §1

[7] = biological target: T5, human JAK2 (Homo sapiens, UniProt O60674); experiment: JAK2 kinase assay (ELISA or Alphascreen); settings: read-out: Jak2 inhibition of enzyme activity
T5 construct: The kinase domain of human JAK2 was amplified from U937mRNA; His tag (from the pFastBac HTc vector) (N); made in house; host or cells: baculovirus; Sf9 for virus, High Five insect cells for production
T5 sequence (O60674 849-1124 limits assumed): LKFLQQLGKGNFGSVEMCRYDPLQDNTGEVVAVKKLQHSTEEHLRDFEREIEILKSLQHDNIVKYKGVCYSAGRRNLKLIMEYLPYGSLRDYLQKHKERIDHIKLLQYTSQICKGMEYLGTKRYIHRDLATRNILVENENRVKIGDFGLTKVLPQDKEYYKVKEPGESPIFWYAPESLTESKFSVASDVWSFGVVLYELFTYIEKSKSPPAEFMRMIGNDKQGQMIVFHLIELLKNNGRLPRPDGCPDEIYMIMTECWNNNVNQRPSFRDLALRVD
Method in brief: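 His-tagged human JAK2 kinase domain from baculovirus-infected insect cells, ~1.5 μg per assay, in 50 mM HEPES pH 7.5, 10 mM MgCl2, 150 mM NaCl, with 10 μM–1 mM ATP and 5 μM biotinylated peptide substrate. Phosphotyrosine detected by PY20 ELISA or AlphaScreen.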

| Compound | inhibition at 10 µM [1] | inhibition at 10 µM [2] | inhibition at 10 µM [3] | inhibition at 10 µM [4] | inhibition at 10 µM [5] | inhibition at 10 µM [6] | inhibition at 10 µM [7] |
| --- | --- | --- | --- | --- | --- | --- | --- |
| COc1cc(-c2cncc(C(=O)OC(C)(C)C)c2)ccc1O | < 50% | ≥ 50% | < 50% | < 50% | < 50% | < 50% | < 50% |
| COc1cc(-c2cncc(C(=O)N[C@H](C)c3ccccc3)c2)c(Cl)c(OC)c1OC | < 50% | < 50% | < 50% | < 50% |  | < 50% | < 50% |
| COc1cc(-c2cncc(C(=O)Nc3cc(C)ccc3C)c2)c(Cl)c(OC)c1OC | < 50% | ≥ 50% | < 50% | < 50% |  | ≥ 50% | < 50% |
| COc1cc(-c2cncc(C(=O)Nc3ccccc3C)c2)c(Cl)c(OC)c1OC | < 50% | ≥ 50% | < 50% | < 50% | < 50% | ≥ 50% | < 50% |
| CC(C)C(CO)NC(=O)c1cncc(-c2ccc3c(c2)OCO3)c1 (stereo not drawn) | < 50% | < 50% | < 50% | < 50% | < 50% | < 50% |  |
| O=C(Nc1ccccc1)c1cncc(-c2cccs2)c1 | < 50% | < 50% | < 50% | ≥ 50% | < 50% | < 50% | < 50% |
| O=C(NCc1cccc(F)c1)c1cncc(-c2cccs2)c1 | < 50% | < 50% | < 50% | ≥ 50% |  | < 50% | < 50% |
| CC(C)NC(=O)c1cncc(-c2cccs2)c1 | < 50% | ≥ 50% | < 50% | ≥ 50% | < 50% | < 50% | < 50% |
| Cc1ccc(CNC(=O)c2cncc(-c3cccs3)c2)cc1 | < 50% | < 50% | < 50% | ≥ 50% | < 50% | < 50% |  |
| O=C(Nc1ccc(N2CCOCC2)cc1)c1cncc(-c2cccs2)c1 | < 50% | < 50% | < 50% | ≥ 50% | < 50% | < 50% | < 50% |
| CN(Cc1ccccc1)C(=O)c1cncc(-c2cccs2)c1 | < 50% | < 50% | < 50% | ≥ 50% | < 50% | < 50% | < 50% |
| CC(CCc1ccccc1)NC(=O)c1cncc(-c2cccs2)c1 (stereo not drawn) | < 50% | < 50% | < 50% | ≥ 50% | < 50% | < 50% | < 50% |
| CC(NC(=O)c1cncc(-c2cccs2)c1)c1ccc(F)cc1 (stereo not drawn) | < 50% | < 50% | < 50% | ≥ 50% | < 50% | < 50% | < 50% |
| C[C@@H](NC(=O)c1cncc(-c2cccnc2)c1)c1ccccc1 | < 50% | < 50% | < 50% | < 50% |  | < 50% | < 50% |
| CC(C)C(CO)NC(=O)c1cncc(-c2cccnc2)c1 (stereo not drawn) | < 50% | < 50% | < 50% | < 50% | < 50% | < 50% |  |
| O=C(Nc1ccccc1)c1cncc(-c2cccnc2)c1 | < 50% | < 50% | < 50% | < 50% | ≥ 50% | < 50% | < 50% |
| O=C(NCc1ccc(Cl)c(Cl)c1)c1cncc(-c2ccc(F)cc2)c1 | < 50% | < 50% | < 50% | < 50% |  | < 50% | < 50% |
| O=C(Nc1ccccc1)c1cncc(-c2ccc(F)cc2)c1 | < 50% | < 50% | < 50% | < 50% |  | < 50% | < 50% |
| CC(NC(=O)c1cncc(-c2cccnc2)c1)c1ccc(F)cc1 (stereo not drawn) | < 50% | < 50% | < 50% | < 50% | < 50% | < 50% |  |

Next, values leading:

| inhibition at 10 µM [1] | inhibition at 10 µM [2] | inhibition at 10 µM [3] | inhibition at 10 µM [4] | inhibition at 10 µM [5] | inhibition at 10 µM [6] | inhibition at 10 µM [7] | Compound |
| --- | --- | --- | --- | --- | --- | --- | --- |
| < 50% | ≥ 50% | ≥ 50% | < 50% | < 50% | ≥ 50% | < 50% | COc1cc(-c2cncc(C(=O)Nc3ccccc3C)c2)cc(OC)c1OC |
| < 50% | < 50% | < 50% | < 50% | < 50% | < 50% |  | COc1ccc(CNC(=O)c2cncc(-c3cc(C)c(O)c(C)c3)c2)cc1 |
| < 50% | ≥ 50% | ≥ 50% | < 50% |  | ≥ 50% | < 50% | Cc1cc(F)ccc1NC(=O)c1cncc(-c2cc(C)c(O)c(C)c2)c1 |
| < 50% | < 50% | < 50% | < 50% | < 50% | < 50% | < 50% | Cc1ccc(F)cc1NC(=O)c1cncc(-c2ccc3c(c2)OCO3)c1 |
| < 50% | ≥ 50% | < 50% | < 50% | < 50% | ≥ 50% | < 50% | Cc1ccc(F)cc1NC(=O)c1cncc(-c2cccs2)c1 |
| < 50% | < 50% | < 50% | < 50% |  | < 50% | < 50% | COc1cccc(-c2cncc(C(=O)Nc3ccccc3)c2)c1 |
| < 50% | < 50% | < 50% | < 50% |  | ≥ 50% | < 50% | COc1cccc(-c2cncc(C(=O)Nc3ccc(F)cc3C)c2)c1 |
| < 50% | < 50% | < 50% | < 50% |  | < 50% | < 50% | COc1cccc(-c2cncc(C(=O)Nc3ccc(OC)cc3OC)c2)c1 |
| < 50% | ≥ 50% | ≥ 50% | < 50% |  | ≥ 50% | < 50% | COc1cc(-c2cncc(C(=O)Nc3cc(F)ccc3C)c2)ccc1O |
